These results are taken from patent US20240254089A1, “MODULATORS OF MAS-RELATED G-PROTEIN RECEPTOR X4 AND RELATED PRODUCTS AND METHODS” (ESCIENT PHARMACEUTICALS, INC., priority 2020, published 2024).

Where two headings read alike, the source gives them in different places. A value given as a limit tells only on which side of the number the result lay.

The target in the assay is T1, human MRGPR X4 (Homo sapiens, UniProt Q96LA9).
T1 construct: expressed in transfected cells
Kind of assay: MRGPR X4 antagonist activity, IP-One Gq HTRF assay in stably transfected HEK cells. In kind it is cell-based. The procedure:
HEK cells stably transfected to express human MIRGPR X4 were maintained in an incubator at 37° C. with 5% CO2 and grown in DMEM media with 10% fetal bovine serum (FBS) and […] each of sodium pyruvate, Glutamax, penicillin/streptomycin, and Geneticin. HEK cells stably transfected to express mouse MRGPR A1 were maintained in the same incubator and grown in DMEM media with 10% FBS, 1% each of sodium pyruvate, Glutamax, penicillin/streptomycin, Geneticin, and 2.2 mg/mL Hygromycin.
Cells were plated in a 384-well assay plate at 20,000 cells per well in 12 μL of Opti-MEM and kept in an incubator overnight. On the day of the assay, compounds solubilized at 10 mM in DMSO were added as a 10-point curve (10 uM final top concentration with 1:3 serial dilutions) using a Tecan D300E digital dispenser. Agonists were diluted in assay buffer (final concentrations of 5.7 mM Tris-HCl, 43 mM NaCl, 50 mM LiCl, pH=8) and 2 μL of the appropriate agonist are added to each well. Final concentrations of agonists were 10 μM bilirubin, 20 μM deoxycholic acid, or 100 μM conjugated bilirubin (obtained from Lee Biosolutions, catalog #910-12). Final concentrations of DMSO were kept consistent across the plate. Plates were incubated in the dark for 1 h at 37° C. and then for 30 minutes at room temperature. IP-1 standards and HTRF detection reagents were added according to the IP-One—Gq Kit purchased from Cisbio (part number 62IPAPEJ) and incubated in the dark for 1 h at room temperature. The plate was read on a Molecular Devices SpectraMax iD5 plate reader. The HTRF ratio was calculated from the raw data and graphed using GraphPad Prism to calculate an IC50 value for each compound.
In general terms: Time-resolved FRET reads energy transfer from a long-lived donor to a nearby acceptor.

T1 sequence (Q96LA9 whole entry): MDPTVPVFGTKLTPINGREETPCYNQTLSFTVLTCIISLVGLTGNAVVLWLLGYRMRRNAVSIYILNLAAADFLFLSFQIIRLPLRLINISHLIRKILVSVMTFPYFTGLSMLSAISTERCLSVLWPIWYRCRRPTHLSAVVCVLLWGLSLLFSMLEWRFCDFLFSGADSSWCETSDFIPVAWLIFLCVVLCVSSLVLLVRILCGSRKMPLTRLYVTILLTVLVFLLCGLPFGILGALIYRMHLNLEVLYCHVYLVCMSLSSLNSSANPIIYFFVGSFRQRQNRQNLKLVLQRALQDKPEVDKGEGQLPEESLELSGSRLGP

Compound `O=C(NCCc1nc2c(s1)CCCC2)c1nn(Cc2ccc(Cl)c(Cl)c2)c2ccccc12` [Compound 56] showed an IC50 of 100 to 500 nM.

In turn, `O=C(NCCc1cccnc1)c1nn(Cc2ccc(F)cc2)c2ccccc12` [Compound 57] had an IC50 of 100 to 500 nM. Same read-out and setting: for `O=C(NCCc1nnc2n1CCCCC2)c1nn(Cc2cccc(F)c2)c2ccccc12` [Compound 58] the value was 100 to 500 nM; for `Cc1ccc(Cn2nc(C(=O)NCCc3nnc4n3CCC4)c3ccccc32)cc1` [Compound 59], 100 to 500 nM; for `Cc1ccc(Cn2nc(C(=O)NCCc3nc4c(s3)CCCC4)c3c(C#N)cccc32)cc1` [Compound 60], 100 to 500 nM. Still for that read-out and setting: the value for `COc1ccc(CCNC(=O)c2nn(Cc3ccc(Cl)cc3)c3ccccc23)nc1` [Compound 61] was 100 to 500 nM. The same measure, in the same setting: for `COc1ccnc(CCNC(=O)c2nn(Cc3ccc(Cl)cc3)c3ccccc23)c1` [Compound 62] the value was 100 to 500 nM; for `Cc1ccc(Cn2nc(C(=O)NCCc3ccccn3)c3ccccc32)cc1` [Compound 63], 100 to 500 nM; for `COc1cc(Cl)ccc1Cn1nc(C(=O)NCCc2nnc3n2CCCCC3)c2ccccc21` [Compound 64], 100 to 500 nM.

`Cc1ccc(Cn2nc(C(=O)NCCc3nc4c(s3)COCC4)c3ccccc32)cc1` [Compound 65] had an IC50 of 100 to 500 nM.

Compound `COc1ccc(Cn2nc(C(=O)NCCc3cccnc3)c3ccccc32)cc1` [Compound 66] had an IC50 of 100 to 500 nM. Still for that read-out and setting: the value for `Cc1ccc(Cn2nc(C(=O)NCCc3cccnc3)c3c(C#N)cccc32)cc1` [Compound 67] was 100 to 500 nM; that for `Cc1cc(Cn2nc(C(=O)NCCc3nc4c(s3)CCCC4)c3ccccc32)ccc1Cl` [Compound 68] was 100 to 500 nM; that for `Cc1ccc(Cn2nc(C(=O)NCCc3nc4c(s3)CCCC4)c3c(F)cccc32)cc1` [Compound 69] was 100 to 500 nM. On the same count and under the same terms, for `Cc1ccc(Cn2nc(C(=O)NCCc3cccnc3)c3c(F)cccc32)cc1` [Compound 70] the value was 501 to 1000 nM; for `O=C(NCCc1c[nH]c2ccccc12)c1nn(Cc2ccc(OC(F)F)cc2)c2ccccc12` [Compound 71], 501 to 1000 nM. Still for that read-out and setting: for `N#Cc1ccc(Cn2nc(C(=O)NCCc3cccnc3)c3ccccc32)cc1` [Compound 72] the value was 501 to 1000 nM. `Cc1ccc(Cn2nc(C(=O)NCCc3c[nH]nn3)c3ccccc32)cc1` [Compound 73] displayed an IC50 of 501 to 1000 nM. The same measure, in the same setting: for `CC(c1ccc(Cl)cc1)n1nc(C(=O)NCCc2nnc3n2CCCCC3)c2ccccc21` (centres unmarked) [Compound 74] the value was 501 to 1000 nM.

As for `COc1cccc(CCNC(=O)c2nn(Cc3ccc(Cl)cc3)c3ccccc23)n1` [Compound 75], the IC50 lay within 501 to 1000 nM. On to `Cc1ccc(Cn2nc(C(=O)NCCc3ccn(C)n3)c3ccccc32)cc1` [Compound 76], for which the IC50 lay in the range of 501 to 1000 nM. Take `Cc1cccnc1CCNC(=O)c1nn(Cc2ccc(Cl)cc2)c2ccccc12` [Compound 77]: the IC50 lay within 501 to 1000 nM. On the same count and under the same terms, the value for `Cc1ccc(Cn2nc(C(=O)NCCc3ccncc3)c3ccccc32)cc1` [Compound 78] was 501 to 1000 nM; that for `CCc1nc(CCNC(=O)c2nn(Cc3ccc(Cl)cc3)c3ccccc23)sc1C` [Compound 79] was 501 to 1000 nM; that for `Cc1nnc(CCNC(=O)c2nn(Cc3ccc(Cl)cc3)c3ccccc23)n1C` [Compound 80] was 501 to 1000 nM. The same measure, in the same setting: the value for `O=C(NCCc1nc2c(s1)CCCC2)c1nn(Cc2cccc(F)c2)c2ccccc12` [Compound 81] was 501 to 1000 nM. In turn, `O=C(NCCc1nc2c(s1)CCCC2)c1nn(Cc2ccc(OC(F)F)cc2)c2ccccc12` [Compound 82] came in with an IC50 of 501 to 1000 nM. On the same count and under the same terms, for `Cc1ccc(Cn2nc(C(=O)NCCc3noc(C4CC4)n3)c3ccccc32)cc1` [Compound 83] the value was 501 to 1000 nM; for `Cc1ccc(Cn2nc(C(=O)NCCc3cc4ccccc4s3)c3ccccc32)cc1` [Compound 84], 501 to 1000 nM; for `Cc1ccc(Cn2nc(C(=O)NCCc3noc(C(C)C)n3)c3ccccc32)cc1` [Compound 85], 501 to 1000 nM. The same measure, in the same setting: for `O=C(NCCc1ccc(C(F)(F)F)nc1)c1nn(Cc2ccc(Cl)cc2)c2ccccc12` [Compound 86] the value was 501 to 1000 nM. Same read-out and setting: the value for `O=C(NCCc1cccnc1)c1nn(Cc2cccc(Cl)c2)c2ccccc12` [Compound 87] was 501 to 1000 nM; that for `Cc1nc(CCNC(=O)c2nn(Cc3ccc(Cl)cc3)c3ccccc23)sc1C(=O)O` [Compound 88] was 501 to 1000 nM.

With `O=C(NCCc1cccnc1)c1nn(Cc2ccccc2Cl)c2ccccc12` [Compound 89], the IC50 is 501 to 1000 nM. On the same count and under the same terms, for `O=C(NCCc1ccno1)c1nn(Cc2ccc(Cl)cc2)c2ccccc12` [Compound 90] the value was 501 to 1000 nM; for `CC(C)c1ccc(Cn2nc(C(=O)NCCc3ccccn3)c3ccccc32)cc1` [Compound 91], 501 to 1000 nM; for `COCCn1cnnc1CCNC(=O)c1nn(Cc2ccc(Cl)cc2)c2ccccc12` [Compound 92], 501 to 1000 nM.

For `O=C(NCCc1c[nH]c2ccccc12)c1nn(Cc2ccc(OC(F)(F)F)cc2)c2ccccc12` [Compound 93], the IC50 was in the range of 1000 to 2500 nM. Still for that read-out and setting: for `Cc1ccc(Cn2nc(C(=O)NCCc3cn(C)c4ccccc34)c3ccccc32)cc1` [Compound 94] the value was 1000 to 2500 nM; for `O=C(NCCc1nc2c(s1)CCCC2)c1nn(Cc2ccccc2Cl)c2ccccc12` [Compound 95], 1000 to 2500 nM. Still for that read-out and setting: the value for `O=C(NCCc1cccnc1)c1nn(Cc2cccc(F)c2)c2ccccc12` [Compound 96] was 1000 to 2500 nM; that for `Cc1ccc(Cn2nc(C(=O)NCCc3cnccn3)c3ccccc32)cc1` [Compound 97] was 1000 to 2500 nM.

`Cc1cc(Cl)ccc1Cn1nc(C(=O)NCCc2nc3c(s2)CCCC3)c2ccccc21` [Compound 98] displayed an IC50 of 1000 to 2500 nM.

The compound `CC(C)n1cnnc1CCNC(=O)c1nn(Cc2ccc(Cl)cc2)c2ccccc12` [Compound 99] came in with an IC50 of 1000 to 2500 nM. `O=C(NCCc1ccon1)c1nn(Cc2ccc(Cl)cc2)c2ccccc12` [Compound 100]: the IC50 fell in the range of 1000 to 2500 nM. Consider `COc1cccc(Cn2nc(C(=O)NCCc3cccnc3)c3ccccc32)c1` [Compound 101], for which the IC50 is 1000 to 2500 nM. On the same count and under the same terms, for `O=C(NCCc1cncnc1)c1nn(Cc2ccc(Cl)cc2)c2ccccc12` [Compound 102] the value was 1000 to 2500 nM; for `Cc1ccc(Cn2nc(C(=O)NCCc3nc4ccccc4o3)c3ccccc32)cc1` [Compound 103], 1000 to 2500 nM.

The compound `Cc1ccc(Cn2nc(C(=O)NCCc3ccc[nH]3)c3ccccc32)cc1` [Compound 104] showed an IC50 of 1000 to 2500 nM. Still for that read-out and setting: for `O=C(NCCc1noc(-c2ccccc2)n1)c1nn(Cc2ccc(Cl)cc2)c2ccccc12` [Compound 105] the value was 1000 to 2500 nM. With `O=C(NCCc1nnc2n1CCCCC2)c1nn(Cc2ccc(-c3ccccc3)cc2)c2ccccc12` [Compound 106], the IC50 lay within 1000 to 2500 nM. Still for that read-out and setting: the value for `Cc1ccc(Cn2nc(C(=O)NCCc3nncn3C)c3ccccc32)cc1` [Compound 107] was 1000 to 2500 nM. Still for that read-out and setting: for `CC(C)c1ccc(Cn2nc(C(=O)NCCc3nc4c(s3)CCCC4)c3ccccc32)cc1` [Compound 108] the value was 1000 to 2500 nM.

On to `Cc1ccc(Cn2nc(C(=O)NCCc3nnc(C4CCOCC4)[nH]3)c3ccccc32)cc1` [Compound 109], for which the IC50 (versus 20 μM deoxycholic acid agonist, HEK cells expressing human MRGPR X4, read-out: MRGPRX4 Antagonist Activity) was 1000 to 2500 nM.

`Cc1ccc(Cn2nc(C(=O)NCCc3nc4c(s3)CCCC4)c3cc(Cl)ccc32)cc1` [Compound 110] displayed an IC50 of 1000 to 2500 nM.

With `O=C(Nc1ccc2cccnc2c1)c1nn(Cc2ccc(Cl)cc2)c2ccccc12` [Compound 111], the IC50 lay in the range of 1000 to 2500 nM. Same read-out and setting: the value for `CC(C)(C)c1ccc(Cn2nc(C(=O)NCCc3ccccn3)c3ccccc32)cc1` [Compound 112] was 1000 to 2500 nM; that for `Cc1ccc(Cn2nc(C(=O)NCCc3ncnn3C)c3ccccc32)cc1` [Compound 113] was 1000 to 2500 nM. The same measure, in the same setting: for `COc1cc(Cl)ccc1Cn1nc(C(=O)NCCc2cccnc2)c2ccccc21` [Compound 114] the value was 1000 to 2500 nM; for `Cc1cccc(Cn2nc(C(=O)NCCc3cccnc3)c3ccccc32)c1` [Compound 115], 1000 to 2500 nM.

Take `Cc1ccc(Cn2nc(C(=O)NCCc3nnc4n3CCCCC4)c3cccc(F)c32)cc1` [Compound 116]: the IC50 was 1000 to 2500 nM. Still for that read-out and setting: for `O=C(NCCc1cccc(C(F)(F)F)n1)c1nn(Cc2ccc(Cl)cc2)c2ccccc12` [Compound 117] the value was 1000 to 2500 nM.

For the compound `CC(c1ccc(Cl)cc1)n1nc(C(=O)NCCc2nc3c(s2)CCCC3)c2ccccc21` (centres unmarked) [Compound 118], the IC50 was in the range of 1000 to 2500 nM. Same read-out and setting: for `Cc1cc(C)nc(CCNC(=O)c2nn(Cc3ccc(Cl)cc3)c3ccccc23)n1` [Compound 119] the value was 1000 to 2500 nM; for `Cc1ccc(CCNC(=O)c2nn(Cc3ccc(OC(F)F)cc3)c3ccccc23)cc1` [Compound 120], 1000 to 2500 nM; for `O=C(NCCc1ccncn1)c1nn(Cc2ccc(Cl)cc2)c2ccccc12` [Compound 121], 1000 to 2500 nM. The compound `Cc1ccc(Cn2nc(C(=O)NCCc3ccco3)c3ccccc32)cc1` [Compound 122] yielded an IC50 of 1000 to 2500 nM. Same read-out and setting: for `COc1cc(Cl)ccc1Cn1nc(C(=O)NCCc2nc3c(s2)CCCC3)c2ccccc21` [Compound 123] the value was above 2500 nM.
